From PubChem BioAssay (NCI)
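Compound exposure: 48 hours, 5 concentrations, 96-well plates. Abbreviation: GI50, concentration required for 50% inhibition of growth. Definition used: TGI = concentration required for complete inhibition of growth.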

Columns and labels:
Assay in all cases: NCI anticancer screen, dose series, 48 h
BT-549 breast = system: BT-549 breast
K-562 leukemia = system: K-562 leukemia
HS 578T breast = system: HS 578T breast
COLO 205 colon = system: COLO 205 colon
T-47D breast = system: T-47D breast
UACC-257 melanoma = system: UACC-257 melanoma
SNB-19 CNS = system: SNB-19 CNS
786-0 renal = system: 786-0 renal
A549 NSCLC = system: A549 NSCLC
CCRF-CEM leukemia = system: CCRF-CEM leukemia

Compound	GI50 (BT-549 breast) [µM]	TGI (BT-549 breast) [µM]	GI50 (K-562 leukemia) [µM]	TGI (K-562 leukemia) [µM]	GI50 (HS 578T breast) [µM]	TGI (HS 578T breast) [µM]	GI50 (COLO 205 colon) [µM]	TGI (COLO 205 colon) [µM]	GI50 (T-47D breast) [µM]	TGI (T-47D breast) [µM]	GI50 (UACC-257 melanoma) [µM]	TGI (UACC-257 melanoma) [µM]	GI50 (SNB-19 CNS) [µM]	TGI (SNB-19 CNS) [µM]	GI50 (786-0 renal) [µM]	TGI (786-0 renal) [µM]	GI50 (A549 NSCLC) [µM]	TGI (A549 NSCLC) [µM]	TGI (CCRF-CEM leukemia) [µM]	GI50 (CCRF-CEM leukemia) [µM]
N#Cc1cccc(C(=O)Nc2cccc(NC(=O)c3cccc(C#N)c3)c2)c1	> 100	> 100	> 100	> 100	39	> 100	> 100	> 100	> 100	> 100	> 100	> 100	> 100	> 100	33.4	> 100	74.3	> 100		
C=C1CC2(C[C@@H](c3ccccc3)O[C@@H](c3ccccc3)C2)OC1=O (stereo partly specified)		4.24		7.51		9.44		4.45		3.68		10.8		29.7		5.63		13.4	5.34	
Cc1nc2cnc3cc(F)c(-c4ccc(Oc5ncccn5)cc4Cl)cc3c2n1[C@H]1CCN(C(=O)CO)C[C@@H]1F	7.51	23.1	4.6	> 100	13.4	77.3	0.0229	1.68	36	> 100	0.0269	0.411	4.89	> 100	8.47	> 100	1.97	> 100	> 76.8	1.69
CC(C)[C@@]12C[C@@H](OC(=O)COC(=O)/C=C/c3ccccc3)[C@@](C)(O1)[C@@H]1CC[C@@H](C)[C@H]1[C@@H]2OC(=O)/C=C/c1ccccc1	0.508	> 100	> 78.1	> 100	0.0187	0.0774	> 100	> 100	> 100	> 100	> 100	> 100	> 100	> 100	> 27.1	> 100	> 100	> 100	> 100	> 100
CC1=CCC(OC(=O)C(C)(C)CCC(O)(C(=O)OC2(C(C)C)CCC3(C)OC3C2)C(C)C)(C(C)C)CC1 (stereo unspecified)	0.696	1.51			0.735	3.57	0.496	1.59	0.152	1.24	0.727	1.5	1.14	5.43	0.616	1.54	0.279	1.16	50	0.132
N=c1c2c(-c3ccccc3)c(-c3ccccc3)n(Cc3ccccc3)c2ncn1CCCO	7.81	21.2	0.959	7.6	8.36	> 55.9	0.681	2.02	3.13	18.1	1.75	5.17	2.21	21.3	1.92	16.2	0.561	15.5	12.8	1.87
CCc1cccc2c3c(sc12)C(c1ccc(Cl)cc1)C(C#N)=C(N)O3 (stereo unspecified)	0.983	15.6	0.391	> 100	0.363	2.6	0.81	6.27	0.493	16.1	8.64	33.1	0.499	12.1	0.94	14.7	0.736	12.9	21.4	0.391
C=C(C)[C@@H]1CC[C@]2(C(=O)NCCNCCNCCN)CC[C@]3(C)[C@H](CC[C@@H]4[C@@]5(C)CC[C@H](O)C(C)(C)[C@@H]5CC[C@]43C)[C@@H]12	15	57.5	6.9	> 100	20.1	66.7	15.9	34.6	10.9	32.3	15.1	33.1	12.9	28.2	12.4	25.2	4.97	21.4	78.2	4.55
NC(=O)c1cc([N+](=O)[O-])c(Cl)c([N+](=O)[O-])c1	2.52	5.56			11.9	29.4	1.99	3.5	2.32	5.12	3.87	15	15.3	29.5	1.96	3.56	16.9	32.2		
COc1ccc(-c2cc(-c3ccccc3)nc(N3CCN(CCNc4ccnc5cc(Cl)ccc45)CC3)n2)cc1	14.6	32.3			11.3	41.9	1.17	2.66	1.55	3.73			3.19	13.2	1.52	2.94	1.9	4.39	> 100	2.19
COC1(O)C(=O)c2ccccc2OC1(OC)c1ccccc1 (stereo unspecified)		> 100		> 100		> 100		> 100		> 100		> 100		> 100		> 100		> 100	> 100	
COc1ccn2c(C(C)=O)cc(C(=O)c3ccc4c(c3)Sc3ccccc3N4)c2c1	0.134	> 100	0.0643	> 100	0.182	> 100	0.0724	0.183	44.7	> 100	> 30.6	> 100	0.158	> 100	0.145	55.1	0.122	> 100	> 100	0.135
NC1=C(Br)C(=O)c2ncccc2C1=O	1.16	2.57		1.01	0.37	2.84		3.18	1.69	4.1		1.89		2.41		2.99		2.68	13.7	
